According to patent US20210113522A1, “COUMARIN DERIVATIVE AS ANTI-ASTHMATIC AGENT, PHARMACEUTICAL COMPOSITION THEREOF, ITS PREPARATION AND USE” (I-NOVA MEDICINSKA ISTRAZIVANJA D.O.O., priority 2017, published 2021):

What was measured:
[1] = test system: L929; test: MTT cytotoxicity / cell survival in murine fibroblast line L929; format: cell-based
Description: (§1) Cytotoxicity of compound 1 was determined through the study of cell growth and viability by the methods of determination of maximal non-toxic concentration (MNC) and concentration required for cell viability by 50% (CC50). […] Cytotoxic concentration at 50% (CC50) was defined as the concentration of the test substance 1 at which 50% of the cells die as a result of toxicity of the test substance.
(§2) Evaluation of cytotoxicity was an important part of the assessment of anti-asthmatic activity of compound 1 since its beneficial therapeutic effect at asthma and other inflammatory respiratory diseases should be selective with little or no effects on the metabolism of host cells. The study of cytotoxicity of compound 1 was performed on two types of cell lines of murine fibroblasts L20B and L929 from European collection of cell cultures (ECACC).
(§3) Cell viability was estimated by a modification of the 3-(4,5-dimethylthiazol-2-yl)-2,5-diphenyltetrazolium bromide (MTT) assay which is one of the most frequently used methods for measuring cell proliferation and cytotoxicity; see literature reference 12: • 12) T. Mosmann: Rapid colorimetric assay for cellular growth and survival: Application to proliferation and cytotoxicity assays, J. Immunol. Methods 65 (1983) 55-63.
(§4) Cell viability was reported as the percentage (%) of viable cells in the wells treated with different concentrations of the test compound 1, compared to the control cells untreated with the substance. Maximal non-toxic concentration (MNC) and cytotoxic concentration for 50% of cells (CC50) were calculated from the constructed “dose-cellular survival” curve.
(§5) Cytotoxicity of compound 1 was determined through the study of cell growth and viability by the methods of determination of maximal non-toxic concentration (MNC) and concentration required for cell viability by 50% (CC50).
(§6) The compound 1 (Mw=410.02) under study were first dissolved in DMSO (Sigma-Aldrich) to a concentration of 0.1 mol/L (0.1 M) as a stockade later diluted in cell growth medium Dulbecco's Modified Eagle Medium (DMEM; Sigma-Aldrich) with 2% heat inactivated fetal bovine serum.
(§7) The study of cytotoxicity of compound 1 was performed on two types of murine fibroblasts cell lines: L20B and L929 from European collection of cell cultures (ECACC). Cells were routinely maintained as adherent cell cultures in DMEM medium and containing 10% Fetal bovine serum (FBS; Gibco), 2 mM L-glutamine (Sigma-Aldrich), 100 U/mL penicillin G sodium (Sigma-Aldrich), 100 μg/mL streptomycin sulphate (Sigma-Aldrich) at 37° C. in a humidified air incubator containing 5% carbon dioxide (CO2). Cultivation of the cells was continued with direct monitoring every two or three days using a phase contrast microscope. The cells are harvested in 1× trypsin/EDTA solution (Sigma-Aldrich). Cells were passages 1:3-1:5 at a density around 5-6·10^4 cells/mL, while the passage was re-suspended repeatedly.
(§8) Methods of determining cell growth, cell viability, maximal non-toxic concentration (MNC) and concentrations, required cell viability by 50% (CC50): Cell viability was estimated by a modification of the MTT [3-(4,5-dimethylthiazol-2-yl)-2,5-diphenyltetrazolium bromide] assay; see literature reference 12. The MTT reduction assay is one of the most frequently used methods for measuring cell proliferation and cytotoxicity. The intensity of colour (measured spectrophotometrically) of the MTT formazan produced by living, metabolically active cells by measuring the activity of succinate dehydrogenase, mostly located in mitochondria was proportional to the number of live cells present. MTT was a yellow water-soluble tetrazolium dye that was reduced by live, but not dead cells to a purple formazan product that was insoluble in aqueous solutions.
(§9) Each cell line was plated at an appropriate density (7.5·10^3 cells/well for L20B cell culture and 4·10^4 cells/well for L929 cell culture) in 96-well plates (Costar Corning; USA) for 24 h. […]

[2] = as above; format: cell-based; details: mouse; L929, 48 h; read-out: CC50 (cytotoxic concentration for 50% cells)
Description: as §1, §2, §3, §4, §5, §6, §7, §8, §9

[3] = MTT cytotoxicity / cell survival in murine fibroblast line L20B; format: cell-based; details: mouse; L20B, 48 h; read-out: CC50 (cytotoxic concentration for 50% cells)
Description: as §1, §2, §3, §4, §5, §6, §7, §8, §9

[4] = test system: L20B; test: as above; format: cell-based
Description: as §1, §2, §3, §4, §5, §6, §7, §8, §9

[5] = test system: mucus production in the airway; test: OVA model: airway mucus production (PAS staining); format: in vivo, Balb/c mice; details: vs mice that received no treatment; 1 2 mg/kg therapeutically or preventively, beclomethasone 1 mg/kg
Description: Enhanced airway mucus production results from airway inflammation and is hallmark of allergic asthma. Thus, mechanisms that suppress immune responses in the lung could result in suppression of mucus production. Mucus production was measured 2 days after i.n. challenge in experimental mice that were treated with compound 1 or beclomethasone (as standard) and lung sections were stained with periodic acid-Schiff stain (PAS). Mucus production in the lung was quantitated immunohistologically by evaluation of mucus-positive epithelia. […]
Mucus production was measured 2 days after i.n. challenge in experimental mice that were treated with compound 1 or beclomethasone (as standard) and lung sections were stained with PAS. Mucus production in the lung was quantitated immunohistologically by evaluation of mucus-positive epithelia.

Question: For O=c1oc2cc(O)cc(O)c2c(O)c1-c1coc2c1c(=O)oc1cc(O)cc(O)c12 [Compound 1, 7,9-dihydroxy-3-(4,5,7-trihydroxy-2-oxo-2H-chromene-3-yl)-4H-furo[3,2-c]chromen-4-one], which “Cell survival, cell culture L929” value ([1]; 0.0001 mg/mL of 1, 48 h) is on record?
Answer: 100.6%

Question: What about the “Cell survival, cell culture L929” value ([1]; 0.001 mg/mL of 1, 48 h) of the same molecule?
Answer: 98.8%

Question: And the “Cell survival, cell culture L929” value ([1]; 0.01 mg/mL of 1, 48 h)?
Answer: 95.3%

Question: What about the “Cell survival, cell culture L929” value ([1]; 0.05 mg/mL of 1, 48 h) of the same molecule?
Answer: 87.1%

Question: What about the “Cell survival, cell culture L929” value ([1]; 0.1 mg/mL of 1, 48 h) of the same molecule?
Answer: 89.3%

Question: And the “Cell survival, cell culture L929” value ([1]; 0.5 mg/mL of 1, 48 h)?
Answer: 83.2%

Question: And the “Cell survival, cell culture L929” value ([1]; 1 mg/mL of 1, 48 h)?
Answer: 76.1%

Question: What about the “Cell survival, cell culture L929” value ([1]; 5 mg/mL of 1, 48 h) of the same molecule?
Answer: 64.9%

Question: What about the “Cell survival, cell culture L929” value ([1]; 10 mg/mL of 1, 48 h) of the same molecule?
Answer: 50.5%

Question: And the “Cytotoxicity against L929 relative to L20B according to MNC values” ([1]; 48 h)?
Answer: 10 ×

Question: What about the “Cytotoxicity against L929 versus L20B according to CC50 values” ([1]; 48 h) of the same molecule?
Answer: the same cytotoxicity

Question: And the “Cytotoxicity (overall, in words)” value ([1]; L929, 48 h)?
Answer: low cytotoxicity

Question: And the “Typical cytopathology characterizing the toxic effect (microscopic morphology of monolayers)” value ([1]; L929, 48 h, 0.0001-10 mg/mL)?
Answer: not registered

Question: And the CC50 at 48 h [2]?
Answer: 10 mM

Question: And the CC50 at 48 h [3]?
Answer: 9 mM

Question: What about the “Cell survival, cell culture L20B” value ([4]; 0.0001 mg/mL of 1, 48 h) of the same molecule?
Answer: 103.3%

Question: And the “Cell survival, cell culture L20B” value ([4]; 0.001 mg/mL of 1, 48 h)?
Answer: 99.7%

Question: What about the “Cell survival, cell culture L20B” value ([4]; 0.01 mg/mL of 1, 48 h) of the same molecule?
Answer: 94.5%

Question: And the “Cell survival, cell culture L20B” value ([4]; 0.05 mg/mL of 1, 48 h)?
Answer: 91.3%

Question: And the “Cell survival, cell culture L20B” value ([4]; 0.1 mg/mL of 1, 48 h)?
Answer: 88.2%

Question: What about the “Cell survival, cell culture L20B” value ([4]; 0.5 mg/mL of 1, 48 h) of the same molecule?
Answer: 85.6%

Question: What about the “Cell survival, cell culture L20B” value ([4]; 1 mg/mL of 1, 48 h) of the same molecule?
Answer: 72.4%

Question: What about the “Cell survival, cell culture L20B” value ([4]; 5 mg/mL of 1, 48 h) of the same molecule?
Answer: 60.2%

Question: And the “Cell survival, cell culture L20B” value ([4]; 10 mg/mL of 1, 48 h)?
Answer: 48.5%

Question: What about the “Cytotoxicity (overall, in words)” value ([4]; L20B, 48 h) of the same molecule?
Answer: low cytotoxicity

Question: What about the “Typical cytopathology characterizing the toxic effect (microscopic morphology of monolayers)” value ([4]; L20B, 48 h, 0.0001-10 mg/mL) of the same molecule?
Answer: not registered

Question: And the “Mucin production in the airway (PAS)” value [5]?
Answer: significant reduction
